# Test system: HepG2 LDLR mRNA, qPCR, 6 h
# Assay: cholesterol-dependence of LDLR transcript changes – cell-based, HepG2, RT-PCR, cherry-picked dose, mechanism study for Trib1 inducer project, late-stage follow-up (AID 1053161)
# Details: stronger effect = higher value
compound,measurement,value
CN1C(=O)c2cc(NC(=O)c3ccc(C(F)(F)F)cc3)ccc2OC[C@@H]2O[C@H](CC(=O)NC3Cc4ccccc4C3)CC[C@@H]21,fold induction,2.5

# Reference: PubChem BioAssay AID1053161 (Broad Institute, 2014)
